Assay [1] has as its system SCF or GM-CSF-stimulated UT-7 cells. As to the kind of experiment: SCF and GM-CSF stimulated UT7 proliferation/survival assay. The assay is classed as cell-based. The note with it: Homo sapiens, UT7, 72 h, 3 days, ATP readout. An excerpt:
SCF and GM-CSF Stimulated UT7 Proliferation/Survival Assay:
The purpose of this assay is to test the general anti-proliferative/cytotoxic effect of small molecule compounds on SCF or GM-CSF-stimulated UT-7 cells. Preventing SCF stimulated proliferation/survival is consistent with an on-mechanism effect whereas inhibition of GM-CSF driven proliferation/survival is indicative of off-target effects. UT-7 is a factor dependent human megakaryoblastic leukemia cell line that can be grown in either IL-3, GM-CSF, EPO or SCF (these cells have been confirmed to carry wild type c-kit receptor). Cells are maintained in growth media (IMDM, 10% HI-FBS, 1×PGS, 1 ng/mL GM-CSF). To measure SCF or GM-CSF-induced proliferation, cells are washed and re-suspended to 5e4c/mL in assay media (RPMI 1640/4% HI-FBS, 1×PGS) and plated at 50 uL/well for 2500c/well. Small molecule compounds are first diluted in 100% DMSO, then diluted 1:4 in RT assay media. 5 Microliters of 11×SCF (55 ng/mL) or 11×GM-CSF (11 ng/mL) in assay media plus 1 μL of diluted drug are added to the cell plates. The treated cells are incubated in a 37° C. humidified incubator with 5% CO2 for 3 days. The amount of ATP is then measured as a surrogate marker for cell viability. This is accomplished by adding 50 μL of Perkin Elmer ATP 1 step reagent (as per instructed in the reagent manual, Cat. No. 6016739), incubating at RT for 15 min and reading the luminescence with a Perkin Elmer Topcount NXT™HTS (model c384) plate reader. The amount of SCF or GM-CSF stimulated viable cells in the presence of compound compared with in the presence of vehicle alone (HI control) is calculated using the formula: % control (POC)=(cpd−average LO)/(average HI−average LO)*100. Data (consisting of POC and inhibitor concentration in μM) is fitted to a 4-parameter equation (y=A+((B−A)/(1+((x/C)^D))), where A is the minimum y (POC) value, B is the maximum y (POC), C is the x (cpd concentration) at the point of inflection and D is the slope factor) using a Levenburg-Marquardt non-linear regression algorithm.

In another assay the target is T1, c-kit kinase enzyme (Homo sapiens, UniProt P10721).
T1 construct: c-kit (6.25 μM) (catalytic domain, N-terminal GST tagged, unphosphorylated); GST (N)
The assay is described as follows: C-kit Homogeneous Time Resolved Fluorescent (HTRF) kinase assay. The assay is classed as biochemical. The settings on record: read-out: average IC50 value, inhibition of the c-kit kinase enzyme. As for the experimental part:
C-kit-Homogeneous Time Resolved Fluorescent (HTRF) Kinase Assay:
The purpose of this assay is to measure the inhibition of c-kit enzyme activity (autophosphorylation and phosphorylation of substrate) by small molecule test compounds. The c-kit HTRF assay begins with c-kit-catalyzed phosphorylation of biotinylated peptide Her-2 (N-GGMEDIYFEFMGGKKK-C) in the presence of ATP. The c-kit enzyme reaction is comprised of 1 μL of compound in 100% DMSO, 15 μL of 2× substrate mix (50 μM ATP and 2 μM biotinylated Her-2) and 15 μL of 2× c-kit (6.25 μM) (catalytic domain, N-terminal GST tagged, unphosphorylated) in 4 mM DTT all diluted in enzyme buffer (25 mM HEPES pH 7.5, 12.5 mM NaCl, 50 mM MgCl, 0.05% BSA). The reaction incubates for 90 min at RT. 160 Microliters of detection mixture containing 0.47 μg/mL steptavidin allophycocyanin and 29.7 pM europylated anti-phosphotyrosine Ab (PT66, Perkin Elmer) in HTRF buffer (100 mM Hepes pH 7.5, 100 mM NaCl, 0.1% BSA, 0.05% Tween 20) is then added to stop the reaction, by diluting out the enzyme as well as to enable quantitation of phosphorylated Her-2. After 3 h at RT, the detection reaction is read in a Packard Discovery™ (model BD1000) plate reader. The wells are excited with coherent […] light and the ratio of delayed ([…] post excitation) emissions at […] (native europium fluorescence) and 665 nm (europium fluorescence transferred to allophycocyanin—an index of substrate phosphorylation) is determined. The proportion of substrate phosphorylated in the kinase reaction in the presence of compound compared with that phosphorylated in the presence of DMSO vehicle alone (HI control) is calculated using the formula: % control (POC)=(cpd−average LO)/(average HI—average LO)*100. Data (consisting of POC and inhibitor concentration in μM) is fitted to a 4-parameter equation (y=A+((B−A)/(1+((x/C)^D))), where A is the minimum y (POC) value, B is the maximum y (POC), C is the x (compound concentration) at the point of inflection and D is the slope factor) using a Levenburg-Marquardt non-linear regression algorithm.
On the technique in general: TR-FRET usually uses a lanthanide donor and a delayed reading to cut background.

T1 sequence (P10721 589-937 limits assumed): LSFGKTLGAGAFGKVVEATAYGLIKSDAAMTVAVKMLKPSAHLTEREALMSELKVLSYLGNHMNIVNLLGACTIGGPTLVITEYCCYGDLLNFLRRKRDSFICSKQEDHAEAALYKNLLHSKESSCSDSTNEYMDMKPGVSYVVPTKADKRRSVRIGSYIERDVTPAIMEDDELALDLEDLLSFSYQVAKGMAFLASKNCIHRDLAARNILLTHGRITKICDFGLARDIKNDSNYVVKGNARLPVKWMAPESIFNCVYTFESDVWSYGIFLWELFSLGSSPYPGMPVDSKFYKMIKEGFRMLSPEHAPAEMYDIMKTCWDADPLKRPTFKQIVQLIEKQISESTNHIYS

Broadly, the IC50 is the midpoint of a concentration-inhibition curve. Regarding `O=C(Nc1cncnc1)c1c(Cl)ccc2c(Nc3ccc(C(F)(F)F)cc3)noc12` [Example 5, 6-chloro-N-(pyrimidin-5-yl)-3-(4-(trifluoromethyl)phenylamino)benzo[d]isoxazole-7-carboxamide], the half-maximal inhibitory concentration (IC50) in assay [1] was ≤ 20 nM.

Take `O=C(Nc1cncnc1)c1c(Cl)ccc2c(Nc3ccc(F)c(C(F)(F)F)c3)noc12` [Example 10, 6-chloro-3-(4-fluoro-3-(trifluoromethyl)phenylamino)-N-(pyrimidin-5-yl)benzo[d]isoxazole-7-carboxamide]: the IC50 at c-kit kinase enzyme was ≤ 20 nM.

For `O=C(Nc1cncnc1)c1c(Cl)ccc2c(Nc3cc(F)cc(C(F)(F)F)c3)noc12` [Example 12, 6-chloro-3-(3-fluoro-5-(trifluoromethyl)phenylamino)-N-(pyrimidin-5-yl)benzo[d]isoxazole-7-carboxamide], the IC50 on c-kit kinase enzyme was ≤ 20 nM.

`O=C(Nc1cncnc1)c1c(Cl)ccc2c(Nc3ccc(OC(F)(F)F)cc3)noc12` [Example 15, 6-chloro-N-(pyrimidin-5-yl)-3-(4-(trifluoromethoxy)phenylamino)benzo[d]isoxazole-7-carboxamide]: the IC50 at c-kit kinase enzyme was ≤ 20 nM.

Regarding `CCCc1ccc(Nc2noc3c(C(=O)Nc4cncnc4)c(Cl)ccc23)cc1` [Example 17, 6-chloro-3-(4-propylphenylamino)-N-(pyrimidin-5-yl)benzo[d]isoxazole-7-carboxamide], the IC50 (in assay [1]; on c-kit kinase enzyme) was ≤ 20 nM each time.

`CCCCc1ccc(Nc2noc3c(C(=O)Nc4cncnc4)c(Cl)ccc23)cc1` [Example 18, 3-(4-butylphenylamino)-6-chloro-N-(pyrimidin-5-yl)benzo[d]isoxazole-7-carboxamide]: the 50% inhibitory concentration (IC50) in assay [1] was ≤ 20 nM.

The record behind these values is US7872128B2, “Benzisoxazole and isoxazolo-pyridine compounds and method of use” (Amgen Inc., priority 2006, dated 2011).
